In patent US11267824B2, “Inhibitors of indoleamine 2,3-dioxygenase and/or tryptophan 2,3-dioxygenase” (IDORSIA PHARMACEUTICALS LTD, priority 2017, dated 2022):
Read-outs that look alike come from different tables or passages of the source.

Experiments:
[1] = target: Recombinant human TDO comprising amino acids 19-407 (Homo sapiens (Human), UniProt P48775); experiment: TDO2 enzymatic assay (TDO inhibitory activity); assay type: biochemical; settings: 15 nM enzyme, 200 μM L-tryptophan, pH7, 30 min pre-incubation, NFK quantified by LCMS, mean values if measured multiple times
Outline: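 His-tagged enzyme (15 nM, E. coli-expressed) in pH 7 phosphate buffer with ascorbate, catalase, BSA, Tween 20, 0.6% DMSO; 30 min RT pre-incubation with compound (10 μM–0.5 nM), then 200 μM L-tryptophan for 30 min RT. N′-formylkynurenine quantified by LCMS against deuterated tryptophan; IC50 by four-parameter fit, duplicates.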

[2] = target: Recombinant full-length human IDO1 (Homo sapiens (Human), UniProt P14902); experiment: IDO1 enzymatic assay (IDO inhibitory activity); assay type: biochemical; settings: 2 nM enzyme, 5 μM L-tryptophan, pH6.5, 30 min pre-incubation, NFK quantified by LCMS; mean values if measured multiple times; read-out: hIDO activity (IC50 in nM)
Outline: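 N-His-tagged enzyme from E. coli at 2 nM in 37.5 mM phosphate pH6.5 with ascorbate, methylene blue, catalase; compounds 10 μM–0.5 nM, 0.6% DMSO, pre-incubated 30 min RT, then 5 μM L-tryptophan for 30 min RT. NFK quantified by LCMS against d5-tryptophan; IC50 from duplicate four-parameter fit, means where repeated.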

[3] = read-out: hTDO activity (IC50 in nM)

Sequence of Recombinant human TDO comprising amino acids 19-407 (P48775 19-406 limits assumed): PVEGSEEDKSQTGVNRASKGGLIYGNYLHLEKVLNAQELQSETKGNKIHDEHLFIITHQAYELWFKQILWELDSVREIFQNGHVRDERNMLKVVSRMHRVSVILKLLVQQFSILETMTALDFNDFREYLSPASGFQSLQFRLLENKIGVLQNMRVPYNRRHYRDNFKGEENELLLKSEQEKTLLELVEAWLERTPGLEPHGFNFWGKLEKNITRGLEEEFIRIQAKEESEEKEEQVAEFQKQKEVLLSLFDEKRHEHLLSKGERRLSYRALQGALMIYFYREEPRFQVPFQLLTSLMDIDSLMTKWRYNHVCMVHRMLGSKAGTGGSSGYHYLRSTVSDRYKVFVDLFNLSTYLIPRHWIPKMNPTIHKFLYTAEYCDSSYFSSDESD
Sequence of Recombinant full-length human IDO1 (P14902 whole entry): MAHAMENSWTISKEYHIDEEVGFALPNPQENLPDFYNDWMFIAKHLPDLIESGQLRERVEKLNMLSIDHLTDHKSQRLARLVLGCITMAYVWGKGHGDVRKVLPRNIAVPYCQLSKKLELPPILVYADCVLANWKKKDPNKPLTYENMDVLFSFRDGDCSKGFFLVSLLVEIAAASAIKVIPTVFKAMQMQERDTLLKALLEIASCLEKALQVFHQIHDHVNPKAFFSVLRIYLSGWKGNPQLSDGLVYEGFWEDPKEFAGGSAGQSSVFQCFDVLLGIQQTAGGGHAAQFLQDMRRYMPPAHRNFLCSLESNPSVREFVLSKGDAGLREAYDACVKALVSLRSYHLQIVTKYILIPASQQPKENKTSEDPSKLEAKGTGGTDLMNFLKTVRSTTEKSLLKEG

Row | Structure (SMILES) | IC50 [1, 3] [nM] | IC50 [2] [nM] | IC50 ([1]; hTDO activity (IC50 in nM)) [nM]
1 | CCc1sc2cncn2c1C(O)CC1CCC(C)(C)CC1 (racemic) [Example 178, rac-2-(4,4-Dimethyl-cyclohexyl)-1-(2-ethyl-imidazo[5,1-b]thiazol-3-yl)-ethanol] | 1290 | 118 | –
2 | CCc1sc2cncn2c1C(O)CC1CCCC1 (racemic) [Example 179, rac-2-Cyclopentyl-1-(2-ethyl-imidazo[5,1-b]thiazol-3-yl)-ethanol] | 203 | 28.9 | –
3 | CCc1sc2cncn2c1C(O)C1CC(C)(C)C1 (racemic) [Example 180, rac-(3,3-Dimethyl-cyclobutyl)-(2-ethyl-imidazo[5,1-b]thiazol-3-yl)-methanol] | 72.9 | 6.65 | –
4 | OC(c1c(-c2cccc(F)c2)sc2cncn12)C1CCCCC1 (racemic) [Example 181, rac-Cyclohexyl-[2-(3-fluoro-phenyl)-imidazo[5,1-b]thiazol-3-yl]-methanol] | 885 | 965 | –
5 | OC(c1c(-c2ccccc2F)sc2cncn12)C1CCCCC1 (racemic) [Example 182, rac-Cyclohexyl-[2-(2-fluoro-phenyl)-imidazo[5,1-b]thiazol-3-yl]-methanol] | 239 | 441 | –
6 | Cc1sc2cncn2c1C(O)CC1CCCC1 (racemic) [Example 183, rac-2-Cyclopentyl-1-(2-methyl-imidazo[5,1-b]thiazol-3-yl)-ethanol] | 573 | 190 | –
7 | OC(c1c(C2(F)CC2)sc2cncn12)C1CCCCC1 (racemic) [Example 184, rac-Cyclohexyl-[2-(1-fluoro-cyclopropyl)-imidazo[5,1-b]thiazol-3-yl]-methanol] | 1760 | 115 | –
8 | CC(C)n1cc(C(O)c2c(C3CC3)sc3cncn23)cn1 (racemic) [Example 188, rac-(2-Cyclopropyl-imidazo[5,1-b]thiazol-3-yl)-(1-isopropyl-1H-pyrazol-4-yl)-methanol] | > 10200 | 111 | –
9 | OC(c1cnn(C2CCCC2)c1)c1c(C2CC2)sc2cncn12 (racemic) [Example 189, rac-(1-Cyclopentyl-1H-pyrazol-4-yl)-(2-cyclopropyl-imidazo[5,1-b]thiazol-3-yl)-methanol] | > 10200 | 112 | –
10 | OC(c1c(C2CC2)sc2cncn12)C12CCC(c3ccccc3)(C1)C2 (racemic) [Example 190, rac-(2-Cyclopropyl-imidazo[5,1-b]thiazol-3-yl)-(4-phenyl-bicyclo[2.1.1]hex-1-yl)-methanol] | 891 | 61.2 | –
11 | OC(c1c(C2CC2)sc2cncn12)C12CC(c3ccccc3)(C1)C2 (racemic) [Example 191, rac-(2-Cycclopropyl-imidazo[5,1-b]thiazol-3-yl)-(3-phenyl-bicyclo[1.1.1]pent-1-yl)-methanol] | 1270 | 28.6 | –
12 | Cn1cc(C(O)c2c(C3CC3)sc3cncn23)nn1 (racemic) [Example 192, rac-(2-Cyclopropyl-imidazo[5,1-b]thiazol-3-yl)-(1-methyl-1H-[1,2,3]triazol-4-yl)-methanol] | > 10200 | 590 | –
13 | CCn1cc(C(O)c2c(C3CC3)sc3cncn23)nn1 (racemic) [Example 193, rac-(2-Cyclopropyl-imidazo[5,1-b]thiazol-3-yl)-(1-ethyl-1H-[1,2,3]triazol-4-yl)-methanol] | > 10200 | 498 | –
14 | CC(C)n1cc(C(O)c2c(C3CC3)sc3cncn23)nn1 (racemic) [Example 194, rac-(2-Cyclopropyl-imidazo[5,1-b]thiazol-3-yl)-(1-isopropyl-1H-[1,2,3]triazol-4-yl)-methanol] | > 10200 | 304 | –
15 | OC(c1cn(C2CCCC2)nn1)c1c(C2CC2)sc2cncn12 (racemic) [Example 195, rac-(1-Cyclopentyl-1H-[1,2,3]triazol-4-yl)-(2-cyclopropyl-imidazo[5,1-b]thiazol-3-yl)-methanol] | > 10200 | 96.1 | –
16 | OC(c1cn(C2CCC2)nn1)c1c(C2CC2)sc2cncn12 (racemic) [Example 196, rac-(1-Cyclobutyl-1H-[1,2,3]triazol-4-yl)-(2-cyclopropyl-imidazo[5,1-b]thiazol-3-yl)-methanol] | > 10200 | 183 | –
17 | OC(c1cn(C2CCCCC2)nn1)c1c(C2CC2)sc2cncn12 (racemic) [Example 197, rac-(1-Cyclohexyl-1H-[1,2,3]triazol-4-yl)-(2-cyclopropyl-imidazo[5,1-b]thiazol-3-yl)-methanol] | > 10200 | 287 | –
18 | CCc1sc2cncn2c1C(O)c1cn(C2CCCC2)nn1 (racemic) [Example 198, rac-(1-Cyclopentyl-1H-[1,2,3]triazol-4-yl)-(2-ethyl-imidazo[5,1-b]thiazol-3-yl)-methanol] | > 10200 | 116 | –

Row | Structure (SMILES) | IC50 [1, 3] [nM] | IC50 [2] [nM] | IC50 ([1]; hTDO activity (IC50 in nM)) [nM]
19 | Cc1sc2cncn2c1C(O)c1cn(C2CCCC2)nn1 (racemic) [Example 199, rac-(1-Cyclopentyl-1H-[1,2,3]triazol-4-yl)-(2-methyl-imidazo[5,1-b]thiazol-3-yl)-methanol] | > 10200 | 835 | –
20 | OC(c1c[nH]nn1)c1c(C2CC2)sc2cncn12 (racemic) [Example 200, rac-(2-Cyclopropyl-imidazo[5,1-b]thiazol-3-yl)-(1H-[1,2,3]triazol-4-yl)-methanol] | > 10200 | 1950 | –
21 | OC(c1c(C2CC2)sc2cncn12)[C@H]1C[C@@H]2CC[C@H]1C2 (relative stereo) [Example 20, rac-(1R*,2R*,4S*)-Bicyclo[2.2.1]hept-2-yl-(2-cyclopropyl-imidazo[5,1-b]thiazol-3-yl)-methanol] | – | 16.1 | 190
22 | OC(c1c([C@@H]2C[C@@H]2F)sc2cncn12)C1CCCCC1 (relative stereo) [Example 186, Cyclohexyl-[2-(cis-2-fluoro-cyclopropyl)-imidazo[5,1-b]thiazol-3-yl]-methanol] | 491 | 21.8 | –
23 | OC(c1c([C@@H]2C[C@H]2F)sc2cncn12)C1CCCCC1 (relative stereo) [Example 187, Cyclohexyl-[2-(trans-2-fluoro-cyclopropyl)-imidazo[5,1-b]thiazol-3-yl]-methanol] | 2260 | 18.5 | –
24 | Cc1sc2cncn2c1C(O)[C@H]1C[C@@H]1c1ccccc1 (single isomer, unassigned) [Example 167, rac-(S*)-(2-Methyl-imidazo[5,1-b]thiazol-3-yl)-((1S*,2S*)-2-phenyl-cyclopropyl)-methanol] | > 10200 | 338 | –
25 | Cc1sc2cncn2c1C(O)[C@H]1C[C@@H]1c1ccccc1 (single isomer, unassigned) [Example 168, rac-(R*)-(2-Methyl-imidazo[5,1-b]thiazol-3-yl)-((1S*,2S*)-2-phenyl-cyclopropyl)-methanol] | 2710 | 123 | –
26 | O[C@H](c1c(C2CC2)sc2cncn12)C1CCCCC1 [Example 1a, (S)-Cyclohexyl(2-cyclopropylimidazo[5,1-b]thiazol-3-yl)methanol] | 115 | 7.5 | –
27 | O[C@@H](CC1CCCCC1)c1c(C2CC2)sc2cncn12 [Example 2a, (S)-2-Cyclohexyl-1-(2-cyclopropylimidazo[5,1-b]thiazol-3-yl)ethan-1-ol] | 268 | 10.3 | –
28 | CC(C)c1sc2cncn2c1[C@@H](O)C1CCCCC1 [Example 3a, (S)-Cyclohexyl-(2-isopropyl-imidazo[5,1-b]thiazol-3-yl)-methanol] | 603 | 11.7 | –
29 | CC(C)c1sc2cncn2c1[C@@H](O)CC1CCCCC1 [Example 4a, (S)-2-Cyclohexyl-1-(2-isopropyl-imidazo[5,1-b]thiazol-3-yl)-ethanol] | 386 | 15.5 | –
30 | Cc1sc2cncn2c1[C@@H](O)CC1CCCCC1 [Example 5a, (S)-2-Cyclohexyl-1-(2-methyl-imidazo[5,1-b]thiazol-3-yl)-ethanol] | 375 | 16.5 | –
31 | Cc1sc2cncn2c1[C@@H](O)C1CCCCC1 [Example 6a, (S)-Cyclohexyl-(2-methyl-imidazo[5,1-b]thiazol-3-yl)-methanol] | 60.4 | 37.3 | –
32 | O[C@H](c1c(C2CCC2)sc2cncn12)C1CCCCC1 [Example 7a, (S)-(2-Cyclobutylimidazo[5,1-b]thiazol-3-yl)(cyclohexyl)methanol] | 138 | 39.7 | –
33 | O[C@@H](CC1CCCCC1)c1c(C2CCC2)sc2cncn12 [Example 8a, (S)-1-(2-Cyclobutylimidazo[5,1-b]thiazol-3-yl)-2-cyclohexylethan-1-ol] | 129 | 72.3 | –
34 | O[C@H](c1c(C2CCCC2)sc2cncn12)C1CCCCC1 [Example 9a, (S)-Cyclohexyl(2-cyclopentylimidazo[5,1-b]thiazol-3-yl)methanol] | 131 | 131 | –
35 | O[C@@H](CC1CCCCC1)c1c(C2CCCC2)sc2cncn12 [Example 10a, (S)-2-Cyclohexyl-1-(2-cyclopentylimidazo[5,1-b]thiazol-3-yl)ethan-1-ol] | 164 | 190 | –
36 | O[C@H](c1c(Cl)sc2cncn12)C1CCCCC1 [Example 13a, (S)-(2-Chloroimidazo[5,1-b]thiazol-3-yl)(cyclohexyl)methanol] | 162 | 93 | –
